Experimental findings from US8236984B2, “Compound and use thereof in the treatment of amyloidosis” (Pentraxin Therapeutics Ltd., priority 2007, dated 2012) are described below.

One series addresses T1, transthyretin (Homo sapiens, UniProt P02766).
T1 construct: Native tetrameric transthyretin was purified from fractionated human plasma; from tissue; host or cells: human plasma
Description: Isothermal titration calorimetry of transthyretin-ligand binding. As to conditions: ITC, Tris-NaCl pH 8.0, 2% DMSO, 37° C. How it is done: 3.3.3 Isothermal titration calorimetry (itc) of transthyretin-mds84 ligand binding: Thermodynamic parameters of transthyretin-mds84 ligand binding were measured directly by isothermal titration calorimetry (VP-ITC, MicroCal LLC, Milton Keynes, UK). An initial injection of 1 μl of mds84 at 0.348 mM was made into transthyretin at a final concentration of 0.029 mM tetramer, followed, at 240 sec intervals, by 35 successive 8 μl injections. The diluent was Tris-NaCl pH 8.0 with 2% (v/v) DMSO. The sample cell was stirred at 310 rpm and cell contents were maintained at 37° C. After correction for volume displacement and plotting against the molar ratio of injected ligand to transthyretin tetramer, integration of the raw thermogram (FIG. 5, upper graph) yielded a binding isotherm (FIG. 5, lower graph) that was best fitted (determined by χ^2 analysis) to a model with a single set of identical sites by non-linear least squares analysis in ORIGIN v7.0 (MicroCal LLC).
In general terms: In ITC the heat of successive injections is recorded.

Series [1] has as its target L55P variant transthyretin (Homo sapiens, UniProt P02766, L75P). Description: Differential scanning calorimetry of transthyretin with ligand. As to conditions: five fold molar excess of ligand. Format: binding. Background: DSC measures the heat that a sample takes up or gives off during a temperature scan.
The target in the next series is wild type transthyretin (Homo sapiens, UniProt P02766). Description: Mass spectrometric analysis of subunit exchange. Format: biochemical. The arrangement: made in house. Conditions: 4.4 μM labelled proteins, 2-fold molar excess of ligand, room temperature and 4° C. As to the method: 4.2 Mass spectrometric analysis of subunit exchange. Recombinant wild type, L55P and V30M transthyretin variants were biosynthetically labelled with isotopes [^15N] and [^15N, ^13C] as previously described (Keetch C A et al, 2005). Immediately prior to analysis, proteins were buffer exchanged into 20 mM ammonium acetate, pH 7.0 using Micro Biospin columns (Bio-Rad, UK). The subunit composition of transthyretin was monitored as a function of time by incubating an equimolar solution (4.4 μM) of [^15N] and [^15N, ^13C] labelled proteins in the presence of 2-fold molar excess of 4ajm15 in DMSO or 2.5% DMSO alone as a control. Each experiment was carried out in triplicate at room temperature and at 4° C. as well, since it is known that subunit exchange is accelerated at low temperatures. Nanoflow ESMS was performed on a QToF2 instrument (Waters/Micromass UK, Ltd.) modified for high mass operation (Sobott et al, (2002)) and calibrated externally using caesium iodide (100 mg/ml). Each solution, 1.5 μl, was electrosprayed from gold coated borosilicate capillaries prepared in-house as described (Nettleton E J, et al, 1998). […]

Series [2] can be described thus: Solubility as noted for calorimetry. As to conditions: in words, reason ITC could not be performed. Format: physicochemical.
The target in the next series is transthyretin Ile122 (Homo sapiens, UniProt P02766). The series is described as follows: Displacement of 125I-T4 from transthyretin in whole serum. The series is classed as binding. As to conditions: read-out: IC50 for displacement of T4 from transthyretin Ile122 in serum; whole serum of heterozygous subjects, mean. The text has this: (§1) 3.2.3.2. Quantitative studies in serum. […] The immunoprecipitate was recovered by centrifugation, washed twice with 0.1 M Tris, 0.1 M NaCl, pH 8.0 and counted.
(Loss of bound radioactivity is the signal in a displacement assay; it reports binding, not function.)

The target of a further series is transthyretin Ala60 (Homo sapiens, UniProt P02766). The series is described as above. The series is classed as binding. Conditions: read-out: IC50 for displacement of T4 from transthyretin Ala60 in serum; whole serum of heterozygous subjects, mean.
Excerpt: as §1

The target of another series is T2, transthyretin Tyr77 (Homo sapiens, UniProt P02766, S97Y).
T2 construct: The displacement of T4 from transthyretin in whole serum; from tissue; host or cells: whole serum of heterozygous carriers
The series is described as above. The series is classed as binding. Conditions: whole serum of heterozygous subjects, mean.
Excerpt: as §1

In another series the target is transthyretin Met30 (Homo sapiens, UniProt P02766). The description is as above. Conditions: read-out: IC50 for displacement of T4 from transthyretin Met30 in serum; whole serum of heterozygous subjects, mean. Format: binding.
Excerpt: as §1

Entries after “also recorded” stand apart in the source; their conditions may differ.

With `O=C(O)c1ccccc1Nc1cc(Cl)c(OCCCCCCCOc2c(Cl)cc(Nc3ccccc3C(=O)O)cc2Cl)c(Cl)c1` [mds84, 2,2′-(4,4′-(heptane-1,7-diylbis(oxy))bis(3,5-dichloro-4,1-phenylene))bis(azanediyl)dibenzoic acid], the “enthalpy (ΔH)” value at transthyretin is -7.95 kcal/mol. Moreover, the dissociation constant Kd at transthyretin (0.029 mM tetramer, read-out: dissociation constant (Kd)) stood at 0.505 µM. In series [1], the “Tm of L55P variant transthyretin with the ligand” value was 98.3 °C and the “increase in Tm of L55P variant transthyretin” value came to 5.9 °C.

For the molecule `O=C(O)c1ccccc1Nc1cc(Cl)c(OCCCCCCCCCCCOc2c(Cl)cc(Nc3ccccc3C(=O)O)cc2Cl)c(Cl)c1` [4ajm15, 2,2′-(4,4′-(undecane-1,11-diylbis(oxy))bis(3,5-dichloro-4,1-phenylene))bis(azanediyl)dibenzoic acid], the “subunit exchange of wild type transthyretin” value on wild type transthyretin is listed as “prevents any subunit exchange; also recorded: almost complete absence of exchange after 7 days”. Also, in series [2], the solubility result was “limited solubility; also recorded: too insoluble”. The IC50 on transthyretin Ile122 is 29.4 µM; on transthyretin Ala60, 26.5 µM; on transthyretin Tyr77, 26.2 µM; at transthyretin Met30, 61.6 µM.

One may read the Kd as a measure of binding affinity in units of concentration. The term IC50 denotes the concentration that gives 50% inhibition.
